# Results published in US20080318993A1 (Endo Pharmaceuticals, Inc., priority 2007, published 2008).
# Key:
# [1] = Example 5: plasma pharmacokinetics of EN3202 20 mg in hepatic impairment vs healthy controls; design: AUC point estimate, mild hepatic impairment vs healthy controls / Cmax point estimate, mild hepatic impairment vs healthy controls: unit not given beside the values; conditions: for AUCT / Cmax / T½ / λz / AUC: mean (SD); for Tmax: median (range); for AUC: plasma, single 20 mg EN3202, fasting; for mean (±SD) ratio of plasma metabolite AUC to oxymorphone AUC: AUC converted to molar concentrations; for conversion of oxymorphone to the metabolite reduced by: from mean plasma metabolite ratios; for increase in average AUC relative to controls: arithmetic means
# Experimental: (§1) While in the clinic, the subjects were to refrain from strenuous physical activity.
# All study medications were supplied by the sponsor. […] A single 20 mg dose EN3202 was administered following an overnight fast (from approximately 22:00 on the evening prior to dose administration) at approximately 08:00, and participants were not allowed to eat until at least four hours after the dose.
# All doses were administered with 240 mL of ambient water. Participants were instructed to drink all of the water.
# Pharmacokinetic parameters were calculated using model-independent methods.
# All pharmacokinetic results are summarized using appropriate descriptive statistics. […] One-way ANOVA was conducted using the model PKVAR=group, where group was mild hepatic impairment, moderate-severe hepatic impairment, or healthy control. Point estimates of the impaired versus control group differences and the corresponding 90% confidence limits were constructed.
# [2] = Example 5: urinary excretion of oxymorphone and metabolites in hepatic impairment vs healthy controls; conditions: for mean amount excreted in the urine: percent of administered dose, through 120 hours; for conversion of oxymorphone to the metabolite reduced by: from urine ratios
# Text: as §1
# [3] = 10 mg oral oxymorphone, cited from earlier work
# [4] = moderate-severe hepatic impairment
Compound,AUCT ([1]; Healthy Controls),Cmax ([1]; Healthy Controls),T½ ([1]; Healthy Controls),λz ([1]; Healthy Controls),Tmax ([1]; Healthy Controls),AUC ([1]; Healthy Controls),AUCT ([1]; Mild Impairment),Cmax ([1]; Mild Impairment),T½ ([1]; Mild Impairment),λz ([1]; Mild Impairment),Tmax ([1]; Mild Impairment),AUC ([1]; Mild Impairment),AUCT ([1]; Moderate-Severe Impairment),Cmax ([1]; Moderate-Severe Impairment),T½ ([1]; Moderate-Severe Impairment),λz ([1]; Moderate-Severe Impairment),Tmax ([1]; Moderate-Severe Impairment),AUC ([1]; Moderate-Severe Impairment),mean (±SD) ratio of plasma metabolite AUC to oxymorphone AUC ([1]; controls),conversion of oxymorphone to the metabolite reduced by ([1]; mild hepatic impairment),other results
"CN1CC[C@]23c4c5ccc(O[C@@H]6O[C@H](C(=O)O)[C@@H](O)[C@H](O)[C@H]6O)c4O[C@H]2C(=O)CC[C@@]3(O)[C@H]1C5 [Oxymorphone-3-glucuronide, oxymorphone-3-glucuronide]",2886.8 (883.9) ng · hr/mL,234.3 (41.7) ng/mL,8.89 (3.00) hr,0.0859 (0.0264) hr^−1,3.0 (1.5-4.0) hr,2979.6 (896.1) ng · hr/mL,2836.7 (1091.9) ng · hr/mL,274.1 (95.8) ng/mL,8.21 (3.87) hr,0.0974 (0.0367) hr^−1,3.0 (3.0-4.0) hr,2954.1 (1136.2) ng · hr/mL,2629.3 (1457.8) ng · hr/mL,212.0 (100.5) ng/mL,7.40 (2.98) hr,0.1075 (0.0435) hr^−1,3.5 (3.0-4.0) hr,2713.9 (1498.6) ng · hr/mL,104.1 (39.5),approximately 35%,"circulating concentrations exceed those of the parent compound by ([1]; healthy control group): approximately 100 fold; AUC point estimate, mild hepatic impairment vs healthy controls ([1]; mild hepatic impairment): 0.972; Cmax point estimate, mild hepatic impairment vs healthy controls ([1]; mild hepatic impairment): 1.133; mean (±SD) ratio of plasma metabolite AUC to oxymorphone AUC ([1]; mild impairment): 67.2 (27.0); conversion of oxymorphone to the metabolite reduced by [1, 4]: ~56%; AUC as percent of control ([1]; moderate-severe impairment): approximately 80%; Cmax as percent of control ([1]; moderate-severe impairment): approximately 80%; circulating concentrations exceed those of the parent compound by ([1]; moderate-severe impairment): 45 fold; mean (±SD) ratio of plasma metabolite AUC to oxymorphone AUC ([1]; moderate-severe impairment): 45.52 (39.2); mean metabolite-to-parent ratio lower than in the control group ([1]; moderate-severe impairment, in both plasma and urine): 2,3 fold; mean amount excreted in the urine ([2]; control group): 38.1%; mean ratio metabolite:oxymorphone excreted in the urine ([2]; healthy controls): 79.05; mean ratio metabolite:oxymorphone excreted in the urine ([2]; mild hepatic impairment): 39.43; conversion of oxymorphone to the metabolite reduced by ([2]; mild hepatic impairment): approximately 50%; mean amount excreted in the urine ([2]; mild hepatic impairment): 39.3%; mean ratio metabolite:oxymorphone excreted in the urine [2, 4]: 33.76; conversion of oxymorphone to the metabolite reduced by [2, 4]: ~57%; mean amount excreted in the urine [2, 4]: 33.7%"
"CN1CC[C@]23c4c5ccc(O)c4O[C@H]2C(O)CC[C@@]3(O)[C@H]1C5 (stereo partly drawn) [6-OH-oxymorphone, 6-hydroxy oxymorphone]",10.80 (9.65) ng · hr/mL,0.72 (0.32) ng/mL,19.19 (11.75) hr,0.0532 (0.0356) hr^−1,1.25 (1.0-4.0) hr,14.76 (11.51) ng · hr/mL,14.11 (9.73) ng · hr/mL,1.12 (0.79) ng/mL,17.54 (13.12) hr,0.0545 (0.0269) hr^−1,1.25 (0.5-3.0) hr,17.35 (11.17) ng · hr/mL,29.25 (20.17) ng · hr/mL,1.78 (1.00) ng/mL,13.87 (8.02) hr,0.0632 (0.0303) hr^−1,1.75 (1.0-6.0) hr,32.12 (19.80) ng · hr/mL,0.66 (0.30),approximately 17%,"increase in average AUC relative to controls ([1]; mild hepatic impairment): 1.18 fold; AUC increase relative to healthy controls ([1]; mild hepatic impairment, log-transformed comparison): 1.36 fold; mean (±SD) ratio of plasma metabolite AUC to oxymorphone AUC ([1]; mild impairment): 0.55 (0.10); Cmax increase relative to healthy controls ([1]; mild impairment, log-transformed comparison): 1.40 fold; conversion of oxymorphone to the metabolite reduced by [1, 4]: ~26%; mean (±SD) ratio of plasma metabolite AUC to oxymorphone AUC ([1]; moderate-severe impairment): 0.49 (0.37); increase in average AUC relative to controls ([1]; moderate-severe impairment): 2.18 fold; urinary excretion essentially complete by ([2]; after single 20 mg dose): ≤ 96 h; mean amount excreted in the urine ([2]; control group): 0.25%; mean amount excreted in the urine ([2]; mild hepatic impairment): 0.71%; mean amount excreted in the urine [2, 4]: 0.88%; Urinary recovery, conjugated [3]: 2.6%; Urinary recovery, free [3]: ~0.3%; Urinary recovery, of the dose ([3]; free plus conjugated): approximately 3%"
